Data reported in US9421204B2, “Oligomer modified diaromatic substituted compounds” (priority 2010, dated 2016).
Read-outs that look alike come from different tables or passages of the source.

Legend:
[1] = pKa determination (Sirius GLpKa); format: physicochemical; conditions: aqueous pKa, 25° C.
Description: The Sirius GLpKa instrument is used to determine the pKa and Log P. A blank standardization has to be completed first and passed in order to conduct the compound experiments. The solutions used by the instrument for the blank titration include water, a pH solution, and a surfactant (TRITON X-100). The TRITON X-100 was purchased commercially from Sirus. The 0.5% solution of TRITON X-100 was used in the experiment. In a 1 L volumetric flask 5 mls of TRITON X-100 is added and MILLI Q water to volume. The vessels used by the instrument were filled to ⅓ of their volume with each solution. Therefore the assay tray contains one vessel for water, pH solution, and surfactant for the blank run. The temperature of the water bath for the instrument is 25° C. The blank is calculated as an average of three “good” experiments. The “good” was denoted by a green check mark next to the assay number in the computer software. Once the blank was run successfully the instrument was ready to conduct the experiments.
The pKa has to be determined first in order to calculate the Log P. The API is used to determine the pKa needed for the Log P experiment followed by the conjugates. The base compound was first weighed into a vessel. The amount weighed for each sample was 10% of the molecular weight of the compound. The same procedure was followed for each conjugate. The vessels were placed in the assay tray of the instrument. A method had to be set up for the pKa run. The experimental parameters are entered into the computer software. These included sample weight, molecular weight, assay type (aqueous pKa), number of assays (three), and titration range (generally 3.5-12). The run was started. There are three measurements for each run that are averaged to obtain the final results from the data points collected in the calculation software. All runs were denoted as “good” by the green check mark next to the assay number.

Wild Type RT = Wild Type RT (Human immunodeficiency virus type 1 group M subtype B, UniProt P04585); experiment: HIV-1 Reverse Transcriptase Inhibition Assay; format: biochemical
Description: The following materials were removed from the freezer and were stored on wet ice (dGTP, ^32P, purified enzyme extract, rCdG, dGTP, DNA). Test compounds were evaluated at a high test of 100 μM diluted in dH2O and if the stock solution was turbid, 1:1000 Triton-X was added to the stock solution. Thirty microliters (30 μL) of each dilution was then transferred in duplicate to the appropriate well of a 96-well plate. The positive and negative control wells each received 30 μL of dH2O instead of the compound. A 2× buffer was prepared in the following manner: 125 μL 2M Tris pH 8.0, 250 μL 3M KCl, 80 μL 1 M MgC12, 10 μL 2 M DTT, 40 μL 25 U/mL rCdG, 100 μL 1 mM dGTP, 10 μL 800 Ci/mMol alpha ^32P:dG TP, and 4.4 mL dH2O. Fifty microliters (50 μL) of 2× buffer was added to every well of the plate. BSA was diluted 1:100 and Triton-X 1:1000 in dH2O and the enzyme was added to the mixture at a 1:400 dilution. Twenty microliters (20 μL) of the enzyme solution was added to all of the wells of the plate except the negative control wells. Distilled water was used instead of enzyme in these wells. The plate was incubated at 37° C. for 30 minutes. Following incubation, 10 μL of 10 mg/mL DNA (MB-grade fish sperm) was added to each well, followed by 150 μL of cold 10% TCA in each well. The plate was incubated at room temperature for approximately 15 minutes in order to allow for precipitation of the samples. Following the incubation the contents were transferred to the appropriate filter plate. The plate was placed on the vacuum manifold and pushed firmly to induce suction. Wells were rinsed with 200 μL of cold TCA. Again, the plate was pushed down firmly and vacuum suction was applied. Once all of the liquid was aspirated from the filter plate, it was removed from the manifold and residual liquid was blotted from the bottom of the plastic base. The filtered wells were separated from the plastic base and the wells were blotted on clean, absorbent paper. The filtered wells were pushed into the cassette and a sheet of Millipore multiscreen tape was placed on the bottom of a Wallace Microbeta cassette covering all of the holes. Twenty microliters (20 μL) of Wallace Supermix Scintillant was added to each well and the top of the wells were covered with a sheet of the multiscreen tape. The plate was read on the Wallace MicroBeta counter to measure incorporated ^32P.

[2] = Toxicity XTT in CEM-SS cells (cytoprotection assay); format: cell-based; conditions: human, CEM-SS cells, XTT; read-out: CEM-SS TC50
Method in brief: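 CEM-SS cells in exponential growth (>95% viable) were plated with compound alone, as eleven half-log dilutions in triplicate, at 37 °C and 5% CO2. Viability was measured by XTT/PMS metabolism over 4 h, read at 450/650 nm. Toxicity was derived by four-parameter curve fitting.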

Molecule | pKa1 [1] | IC50 (Wild Type RT; Wild Type RT IC50) [nM] | CC50 [2] [nM] | IC50 (Wild Type RT; read-out: Wild Type RT IC50) [nM]
COCCOCCOCCOCCOCCOc1ccc2[nH]c(C(=O)N3CCN(c4ncccc4NC(C)C)CC3)cc2c1 [mPEG5-O-Delavirdine, 5-O-mPEG5-Delavirdine] | 4.454 | 130 | 14400 | 
COCCOCCOCCOCCOc1ccc2[nH]c(C(=O)N3CCN(c4ncccc4NC(C)C)CC3)cc2c1 [mPEG4-O-Delavirdine, 5-O-mPEG4-Delavirdine] | 4.275 | 280 | 34000 | 
COCCNc1ccc2[nH]c(C(=O)N3CCN(c4ncccc4NC(C)C)CC3)cc2c1 [5-mPEG1-NH-Delavirdine, 5-mPEG-NH-Delavirdine] |  | 250 | 50900 | 
COCCOCCOCCOCCOCCOCCOc1ccc2[nH]c(C(=O)N3CCN(c4ncccc4NC(C)C)CC3)cc2c1 [mPEG6-O-Delavirdine, 5-O-mPEG6-Delavirdine] | 4.447 | 290 | 22500 | 
COCCOCCOCCOCCOCCOCCOCCOc1ccc2[nH]c(C(=O)N3CCN(c4ncccc4NC(C)C)CC3)cc2c1 [mPEG7-O-Delavirdine, 5-O-mPEG7-Delavirdine] | 4.683 | 700 | 35500 | 
COCCOCCOCCOc1ccc2[nH]c(C(=O)N3CCN(c4ncccc4NC(C)C)CC3)cc2c1 [mPEG3-O-Delavirdine, 5-O-mPEG3-Delavirdine] | 3.792 | 50 | 26900 | 
COCCOCCOCCOCCOCCOCCOCCOCCOc1ccc2[nH]c(C(=O)N3CCN(c4ncccc4NC(C)C)CC3)cc2c1 [mPEG8-O-Delavirdine, 5-O-mPEG8-Delavirdine] | 4.667 | 490 | 52500 | 
5-O-mPEG9-Delavirdine [mPEG9-O-Delavirdine] | 4.655 |  |  | 560
COCCOCCNc1ccc2[nH]c(C(=O)N3CCN(c4ncccc4NC(C)C)CC3)cc2c1 [5-mPEG2-NH-Delavirdine] |  | 580 | 55500 | 
